One experiment has as its target T1, PAF receptor (Oryctolagus cuniculus, UniProt G1TEI7).
T1 construct: centrifuged at 800 rpm for 10-15 minutes at room temperature to recover the platelet rich plasma (PRP); from tissue; host or cells: platelets in platelet rich plasma from blood of male New Zealand White rabbits
The experiment can be described thus: Inhibition of PAF induced platelet aggregation in rabbit platelet rich plasma. Type of experiment: cell-based, rabbit (New Zealand White). Conditions: for inhibition at 10 µM: dose .00001 M. As for the experimental part:
Test compounds are evaluated as PAF receptor antagonists in vitro by measuring inhibition of PAF (platelet activating factor) induced platelet aggregation. Platelet aggregation is measured by a modification of the method described in […], et. al., J. Med. Chem., 27 1174, 1984. […] All syringes and pipets are plastic. The blood is gently mixed and immediately centrifuged at 800 rpm for 10-15 minutes at room temperature to recover the platelet rich plasma (PRP). Platelet poor plasma (PPP) is prepared by centrifuging PRP at 2800 rpm for 10 minutes at room temperature. Dilutions (1:3000) of PRP in Isotone diluent are made and platelet counts are determined on a Coulter Thrombocounter which is standardized with platelet reference standards (Interscience Platelet Control, Portland, Oreg.). PRP platelet counts are adjusted to approximately 400,000-500,000 platelets/μl by the addition of PPP. L-PAF (Platelet Activating Factor) is obtained from Calbiochem. […] All solutions are made up in plastic tubes, stored on ice and protected from heat and light. Solutions are prepared fresh or frozen at -20° C. and used within 48 hours. Incubation mixtures consisted of 400 μl PRP, 50 μl of saline diluent or test compound and 50 μl of PAF agonist. More specifically, 400μl of PRP is stabilized in a cuvette for 1-2 minutes at 37° C. in the aggregometer to achieve a stable baseline, then 50 μl of saline or test compound is added and incubated for 5 minutes before addition of the challenge concentration of pAF. A submaximal concentration is determined from the dose response curve for PAF for that experiment. In general, the challenge concentration is 5E-8 or 1E-7M. Aggregation is monitored for 5 minutes. Samples containing test compound or diluent are run simultaneously for comparison. Test compounds are initially evaluated at a screening concentration of 1E-5M. […] The recording equipment consists of a dual channel Chronolog aggregometer connected to a dual channel 10MV full scale deflection Omniscribe chart recorder (Houston Instruments). The chart recorder is calibrated daily with the use of a suspension of Bio-Rad latex beads (S-X 12 400 mesh) which has a density slightly greater than rabbit PRP. […] These limits defined a full scale deflection. The aggregation traces are analyzed by a digitizing method (C. Kohler and B. Zoltan, J. Pharm. Methods, 12, 113, 1984) with x, y coordinate data stored in a computer file. A suitable program computes parameters of interest such as the magnitude of aggregation.

Experiment [1] has as its system LPS endotoxin. Kind of experiment: Low dose, chronic mouse endotoxemia (LPS endotoxin). The format is in vivo, Male Balb/c mice. The settings on record: day 6, LPS 20 mg/kg i.p. The text has this: (§1) Endotoxin administration produces a shock-like state characterized by vascular permeability changes, hypotension, neutropenia, thrombocytopenia,multiple organ damage and death. The major mediators released after endotoxin injection are TNF (tumor necrosis factor), PAF (platelet activating factor) and […] (interleukin I). PAF administration mimics the signs and symptoms of endotoxin induced shock and death and endotoxin also induces the release of PAF. Therefore, the effects of endotoxin should be blocked with a PAF antagonist.
(§2) Male Balb/c mice (approximately 20 g) are obtained from Charles River Laboratories and used after a one-two week acclimation period. Animals are given (ip) test compound dissolved in saline or water (sonicated and heated) at different time intervals prior to and after the ip injection of endotoxin (usually 2 hours before LPS endotoxin, and 3-4 hours after). Sigma E. Coli endotoxin, 0111:B4, phenol extraction, catalog #L2630 is used for these studies.
For the chronic endotoxin shock model, a lower dose of endotoxin is administered (generally 15 to 20 mg/kg i.p). This dose gives an LD80 in two to four days following LPS administration. Test compounds are given 2 hours before LPS and 3-4 hours after on the first day, followed by 3 or 4 consecutive days of BID dosing. The number of survivors in each group is recorded each day for a period of 5 to 7 days.
All mice challenged with LPS endotoxin = 20 mg/kg i.p.
CL test cpd given 2 hours before and 3-4 hours after LPS challenge on day
0, followed by BID dosing for 3-4 days.

Experiment [2] deals with LPS endotoxin. The experiment can be described thus: High dose acute mouse endotoxemia (LPS endotoxin induced mortality). Type of experiment: in vivo, Male Balb/c mice. The settings on record: for % Survival / survivors/total: i.p., LPS 50 mg/kg ip.
From the text: as §1, §2
This LD value is approximately 50 mg/kg i.p. The number of survivors in each group (control or treated with test compound) is recorded after 24, 48 or 72 hours and the treated groups (receiving test compound and endotoxin) are compared with the untreated, control group (receiving endotoxin only) or saline control (receiving saline and endotoxin).
LPS Endotoxin challenge = 50 mg/kg ip
Test cpd given 2 hrs. before and 3-4 hrs. after LPS challenge on day 0,
followed by BID dosing for 3-4 days.

A further experiment has as its system PAF. The experiment can be described thus: PAF induced lethality in mice. Type of experiment: in vivo. The settings on record: PAF 150 μg/kg IV. The method, then: PAF given I.V. to mice causes an immediate hypotensive shock leading to death in 1 hour or less. […] Animals alive after 2 hours are counted and the activity of test compounds expressed as % survival corrected for any control (saline treated) animals which survived the PAF challenge.

[3] abbreviates: PAF challenge 5.0000E-08 M, read-out: % INH of PAF induced platelet aggregation.
Setting [4] is: PAF challenge 5E-9 M, read-out: % INH of PAF induced platelet aggregation.

Structures are written as SMILES. pIC50: −log10 of the molar value. Several values for one entry are separate records, joined by “and”; a condition that tells them apart may be missing. Identical values can stand only once. Like-named read-outs stand apart in the source and are kept apart here.

The values below come from patent publication US5225425A, “Bis-aryl amide antagonists of platelet activating factor” (American Cyanamid Company, priority 1992, dated 1993).

T1 sequence (G1TEI7 1-342): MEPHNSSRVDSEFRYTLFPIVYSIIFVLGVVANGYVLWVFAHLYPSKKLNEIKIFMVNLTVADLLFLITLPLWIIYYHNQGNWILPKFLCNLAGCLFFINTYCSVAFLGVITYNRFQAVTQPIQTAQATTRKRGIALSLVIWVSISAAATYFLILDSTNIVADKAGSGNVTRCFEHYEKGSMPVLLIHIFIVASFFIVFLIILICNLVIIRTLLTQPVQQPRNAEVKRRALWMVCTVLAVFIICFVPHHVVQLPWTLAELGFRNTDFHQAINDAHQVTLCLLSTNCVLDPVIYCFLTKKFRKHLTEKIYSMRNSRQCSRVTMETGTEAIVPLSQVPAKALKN

By pIC50 is commonly meant −log10 of the IC50, conventionally taken in molar units. Higher therefore signals a small IC50. For `CCCCCCCCCCCCCCOc1ccc(CN(C(=O)NC)c2cccc(C[n+]3csc(C)c3)c2)cc1.[Br-]` [5-methyl-3-[[3-[[(methylamino)carbonyl]-[[4-(tetradecyloxy)phenyl]methyl]amino]phenyl]methyl]-thiazolium bromide], the pIC50 was 6.34 at PAF receptor (PAF challenge 5.0000E-08 M) and 5.96 on PAF receptor (PAF challenge .0000001 M). For the same compound, the inhibition at 10 µM is 90% on PAF receptor (setting [3]) and 95% at PAF receptor (PAF challenge .0000001 M, read-out: % INH of PAF induced platelet aggregation). In addition, the “% Survival” value in the experiment with LPS endotoxin [1] (dose 10 mg/kg i.p.) came to 46%; in the experiment on LPS endotoxin [1] (dose 20 mg/kg i.p.) it was 20%.

For `CCCCCCCCCCCCCCOc1cccc(CC(=O)Nc2cccc(C[n+]3csc(C)c3)c2)c1.[Br-]` [5-methyl-3-[[3-[[[3-(tetradecyloxy)phenyl]acetyl]amino]phenyl]methyl]thiazolium bromide], the pIC50 on PAF receptor (PAF challenge 5.0000E-08 M) was 6.31 and 5.90; against PAF receptor (PAF challenge 5E-9 M), 5.97. Besides, the inhibition at 10 µM on PAF receptor (setting [4]) worked out at 100%. The “% Survival” value in the experiment with LPS endotoxin [1] (dose 10 mg/kg i.p.) is on record as 43%; in the experiment with LPS endotoxin [2] (day 0), 100%; in the experiment on LPS endotoxin [2] (day 1), 40%; in the experiment with LPS endotoxin [2] (day 2), 13%; in the experiment on LPS endotoxin [2] (day 3), 10%; with LPS endotoxin [2] (day 4) it was 10%. Also, the figures for the “% Survival” value in the experiment with PAF (5 mg/kg P.O.) and in the experiment with PAF (20 mg/kg P.O.) were 40% and 59%, respectively. The survivors/total is on record as 30/30 with LPS endotoxin [2] (day 0); 12/30 with LPS endotoxin [2] (day 1); 4/30 in the experiment with LPS endotoxin [2] (day 2); 3/30 in the experiment on LPS endotoxin [2] (day 3); 3/30 with LPS endotoxin [2] (day 4). For the same compound, in the experiment with LPS endotoxin [2] (ip, in words), the “activity when administered ip prior to a lethal ip injection of endotoxin” value is “some activity”.

The compound `CCCCCCCCCCCCCCOc1ccc(CC(=O)Nc2cccc(C[n+]3ccsc3)c2)cc1.[Br-]` [3-[[3-[[[4-(tetradecyloxy)phenyl]acetyl]amino]phenyl]methyl]thiazolium bromide] showed a pIC50 against PAF receptor (PAF challenge 5E-9 M) of 6.92. Moreover, the inhibition at 2.5 µM at PAF receptor (dose .0000025 M, PAF challenge 5.0000E-08 M, read-out: % INH of PAF induced platelet aggregation) was 97%. Besides, the inhibition at 10 µM on PAF receptor (setting [3]) was 100%; on PAF receptor (setting [4]), 98%. For the same compound, the “% Survival” value came out at 63% with LPS endotoxin [1] (dose 10 mg/kg i.p.), 40% in the experiment on LPS endotoxin [1] (dose 20 mg/kg i.p.) and 40% in the experiment with PAF (40 mg/kg P.O.).
